Results as given in US7368467B2, “Ion channel modulators” (Wyeth, priority 2004, dated 2008).

Key:
[1] = system: calcium channels (e.g., Cav2.2 subfamily); assay: Oocyte assay, calcium channel modulation in Xenopus oocyte heterologous expression system; format: cell-based; conditions: calcium channel (e.g., Cav2.2 subfamily)
Protocol: Representative compounds of the formulae herein are screened for activity against calcium channel targets in an assay essentially as described in Neuron January 1997, 18(11): 153-166, Lin et. al.; J. Neurosci. Jul. 1, 2000, 20(13):4768-75, J. Pan and D. Lipsombe; and J. Neurosci., Aug. 15, 2001, 21(16):5944-5951, W. Xu and D. Lipscombe, using Xenopus oocyte heterologeous expression system. The assay is performed on various calcium channels (e.g., Cav2.2subfamily) whereby the modulation of the calcium channel is measured for each compound. Table 2 contains IC50's for representative compounds disclosed in the invention.

[2] = system: calcium channel (e.g., L-type, N-type, etc.); assay: HEK assay, whole-cell voltage clamp of calcium channel currents in transiently transfected HEK-293T/17 cells; format: cell-based; conditions: whole-cell patch clamp, holding potential −100 mV, steps to about +10 mV
Protocol: HEK-293T/17 cells are transiently transfected in a similar manner as described in FuGENE 6 Package Insert Version 7, April 2002, Roche Applied Science, Indianapolis, Ind. The cells are plated at 2.5×10^5 cells in 2 mL in a 6-well plate in incubator for one night and achieve a 30˜40% confluence. In a small sterile tube, add sufficient serum-free medium as diluent for FuGENE Transfection Reagent (Roche Applied Science, Indianapolis, Ind.), to a total volume of 100 μL. Add 3 μL of FuGENE 6 Reagent directly into this medium. The mixture is tapped gently to mix. 2 μg of DNA solution (0.8-2.0 μg/μL) is added to the prediluted FuGENE 6 Reagent from above. The DNA/Fugene 6 mixture is gently pipeted to mix the contents and incubated for about 15 minutes at room temperature. The complex mixture is then added to the HEK-293T/17 cells, distributing it around the well, and swirled to ensure even dispersal. The cells are returned to the incubator for 24 hrs. The transfected cells are then replated at density 2.5×10^5 in a 35 mm dish with 5 glass coverslips and grow in low serum(1%) media for 24 hrs. Coverslips with isolated cells are then transferred into chamber and calcium channel (e.g., L-type, N-type, etc.) current or other currents for counter screening are recorded from the transiently transfected HEK-293T/1 7 cells.
The whole-cell voltage clamp configuration of the patch clamp technique is employed to evaluate voltage-dependent calcium currents essentially as described by Thompson and Wong (1991) J. Physiol., 439: 671-689. To record calcium channel (e.g., L-type, N-type, etc.) currents for evaluation of inhibitory potency of compounds (steady-state concentration-response analysis), five pulses of 20-30 ms voltage steps to about +10 mV (the peak of the current voltage relationship) are delivered at five Hz every 30 second from a holding potential at −100 mV. Compound evaluations were carried out essentially as described by Sah D W and Bean B P (1994) Mol Pharmacol. 45(1):84-92. Table 3 contains IC50's for representative compounds.

## Cc1ccc(-n2c(-c3ccc(F)cc3)cnc2SCc2nc3ccccc3[nH]2)cc1 [Compound 4]
[1]
  IC50: 5.7 µM

## Cc1ccc(F)cc1-c1cnc(SCc2nc3ccccc3[nH]2)n1-c1ccc(Cl)cc1 [Compound 13]
[2]
  IC50: 0.328 µM

## COc1ccc(OC)c(-c2cnc(SCc3nc4ccccc4[nH]3)n2-c2ccc(Cl)cc2)c1 [Compound 7]
[2]
  IC50: 0.793 µM

## COc1ccc(-n2c(-c3ccc(F)cc3)cnc2SCC(=O)NCc2ccco2)cc1 [Compound 234]
[1]
  IC50: 5.4 µM

## Cc1ccc(-n2c(-c3ccccc3)cnc2SCc2nc3ccccc3[nH]2)cc1 [Compound 2]
[1]
  IC50: 6.63 µM

## COc1ccccc1-c1cnc(SCc2cnc(C)s2)n1-c1ccc(Cl)cc1 [Compound 8]
[2]
  IC50: 0.187 µM
